Results from paper PMC5557053 (European journal of clinical pharmacology, 2011).
Where “and” joins values, the source holds several entries; their conditions need not be identical. Equal entries are not always repeated.

Experiments:
[1] = Exposure-safety: logistic regression against model-predicted AUC0–24; type: in vivo, human; settings: for predicted incidence of all grade total bilirubin elevation: median baseline total bilirubin 6.84 μmol/L; for AUC(0-t): human, serum, oral
[2] = system: BCR-ABL transcript level; assay: Exposure-efficacy: BCR-ABL ratio and MMR at 12 months by observed Cmin quartile; type: in vivo, human
[3] = human, in vivo
[4] = clinical; settings: human, serum, oral
[5] = system: OCT1; settings: cited from earlier work
[6] = system: efflux transporters (ABCB1, ABCG2); settings: CML cells; cited from earlier work
[7] = Population PK analysis, nonlinear mixed-effect modeling
[8] = population mean (standard error)

For `Cc1cn(-c2cc(NC(=O)c3ccc(C)c(Nc4nccc(-c5cccnc5)n4)c3)cc(C(F)(F)F)c2)cn1` [nilotinib], the “predicted incidence of all grade abnormalities, hemoglobin” value ([1]; AUC0–24 16 μg·h/mL) was 31.7%, the “predicted incidence of all grade abnormalities, lipase” value ([1]; AUC0–24 16 μg·h/mL) was 17.4% and the “predicted incidence of all grade total bilirubin elevation” value ([1]; AUC0–24 16 μg∙h/mL) was 29.4%. For the same compound, the “predicted incidence of all grade abnormalities, hemoglobin” value ([1]; AUC0–24 24 μg·h/mL) was 36.4%, the “predicted incidence of all grade abnormalities, lipase” value ([1]; AUC0–24 24 μg·h/mL) was 23.8% and the “predicted incidence of all grade total bilirubin elevation” value ([1]; AUC0–24 24 μg∙h/mL) was 46.5%. For the same compound, the “predicted incidence of all grade abnormalities, hemoglobin” value ([1]; AUC0–24 32 μg·h/mL) was 39.9%, the “predicted incidence of all grade abnormalities, lipase” value ([1]; AUC0–24 32 μg·h/mL) was 29.3% and the “predicted incidence of all grade total bilirubin elevation” value ([1]; AUC0–24 32 μg∙h/mL) was 59.5%. For the same compound, the AUC(0-t) [1] was 25900 ng·h/mL, the AUC(0-t) ([1]; male, 300 mg) was 24000 ng·h/mL and the “MMR difference vs Q1 (95% CI)” value ([2]; Q2/3 829–1,569 ng/mL vs Q1) was 1.7 (−10.4, 13.8). The “MMR difference vs Q1 (95% CI)” value ([2]; Q4 >1,569 ng/mL vs Q1) was 4.6 (−9.3, 18.6), the “MMR difference vs Q2/3 (95% CI)” value ([2]; Q4 >1,569 ng/mL vs Q2/3) was 2.9 (−9.0, 14.8) and the “MMR at 12 months” value ([2]; average Cmin Q1 <829 ng/mL, evaluable patients n observed 96) was 45 (46.9) n (%). The “MMR at 12 months” value ([2]; average Cmin Q2/3 829–1,569 ng/mL, evaluable patients n observed 208) was 101 (48.6) n (%), the “MMR at 12 months” value ([2]; average Cmin Q4 >1,569 ng/mL, evaluable patients n observed 101) was 52 (51.5) n (%) and the “higher exposure in 400 mg twice-daily arm than in 300 mg twice-daily arm” value [3] was 11.5%. The Vd [4] was 58 L, the clearance [4] was 350 mL/min and the “dependence of movement into CML cells on influx transporter OCT1” value [5] was “independent of the influx transporter OCT1”. For the same compound, the “role of efflux transporters (ABCB1, ABCG2) in cellular retention” value [6] was “none of them appear to play an important role”, the “predicted decrease in CL” value ([7]; AST increase from ULN to 1.5 × ULN) was 1% and the “predicted decrease in CL” value ([7]; AST increase from ULN to 2 × ULN) was 3%. The “σ1, proportional random error” value ([7]; estimate (standard error)) was 29.8 (0.917) %, the “σ2, additive random error” value ([7]; estimate (standard error)) was 110 (17.4) ng/mL and the “Interindividual variability of CL” value ([7]; final model, % (SE)) was 37.6% and 37.6 (1.4) %. For the same compound, the “Interindividual variability of V1” value ([7]; final model, % (SE)) was 79.2% and 79.2 (14.2) %, the “Interindividual variability of V2” value ([7]; final model, % (SE)) was 98.9% and 98.9 (19.7) % and the “interindividual variability of CL before addition of significant covariates” value ([7]; model without covariates) was 40.0%. For the same compound, the “D1, zero-order input duration” value [7, 8] was 9.88 (0.112) h, the “V2, volume of distribution of peripheral compartment” value [7, 8] was 181 (25.4) L and the “Lag, lag time for absorption” value ([7]; population mean, fixed) was 0.67 h (fixed). For the same compound, the “lower bioavailability or systemic exposure in male than female patients” value ([7]; same dose level) was “approximately 10%”, the “predicted decrease in CL” value ([7]; total bilirubin increase from ULN to 1.5 × ULN) was 12% and the “predicted decrease in CL” value ([7]; total bilirubin increase from ULN to 2 × ULN) was 23%. The “predicted decrease in CL” value ([7]; total bilirubin increase from ULN to 2.5 × ULN) was 32%.
